Source: US9808003B2, “Herbicidally active 2-(substituted-phenyl)-cyclopentane-1,3-dione compounds and derivatives thereof” (Syngenta Limited, priority 2013, dated 2017)

Assays:
Assay type in all cases: in vivo
[1] = system: grassy monocotyledonous weeds; assay: Test 1B glasshouse assay, post-emergence, comparison of separated enantiomers, weeds overall; conditions: chiral-column-separated enantiomers, A98 vs A99 and A100 vs A101, Biological Example 1B
Description: Biological Example 1B tests the herbicidal activity of“technical” compounds (i.e. compounds not previously formulated before the test), as the herbicides under test.
An “instant formulation”, known as the “IF50”, containing 50 g/liter (i.e. 5% w/v) of the “technical” (i.e. unformulated) active ingredient (i.e. the herbicide under test), is prepared by dissolving the active ingredient in a mixture of organic solvents and emulsifier, details of which are provided in the Table below. […]
The test plants are then grown on under controlled conditions in the glasshouse (at 22/16° C., day/night; 16 hours light; 65% humidity) and are watered twice daily. 14 days after application of the test herbicide, the test is evaluated visually for percentage phytotoxicity to the plant (where 100%=total damage to plant; 0%=no damage to plant). […]
Herbicidal activity (phytotoxicity) is evaluated visually, and an assessed percentage phytotoxicity score is given for each herbicidal application on each plant species (with 100%=total damage to plant; 0%=no damage to plant; the assessment is recorded in increments of 1%). […]

[2] = system: Winter Barley “Suzuka”; assay: Test 1B glasshouse assay, post-emergence herbicidal activity against cereal crops; conditions: 14 DAA
Procedure, shortened: (§1)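 Visual percentage damage (100% = total, 0% = none) read 14 days after application, averaged over two replicates. Plants grown 14 days at 22/16 °C day/night before post-emergence spraying of unformulated compound (IF50/acetone, 0.5% v/v Adigor). Rates usually 60–120 g/ha; cloquintocet-mexyl 50 g/ha co-applied where stated.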

[3] = system: Spring Barley “Harrington”; assay: as above; conditions: 14 DAA
Procedure, shortened: as §1

[4] = system: Spring Wheat “Teal”; assay: as above; conditions: 14 DAA
Procedure, shortened: as §1

[5] = system: Winter Wheat “Hereward”; assay: as above; conditions: 14 DAA
Procedure, shortened: as §1

[6] = system: Lolium multiflorum (LOLMU); assay: Test 1B glasshouse assay, post-emergence herbicidal activity against grassy weeds; conditions: 14 DAA
Procedure, shortened: (§2)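 Unformulated compound was dissolved as a 50 g/L emulsifiable IF50, then diluted in 0.5% v/v Adigor to spray plants 14 days after sowing. Usual rates were 60 g/ha with or without, or 90 and 120 g/ha with, 50 g/ha cloquintocet-mexyl. Visual % phytotoxicity at 14 DAA, mean of two replicates.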

[7] = system: Poa annua (POAAN); assay: as above; conditions: 14 DAA
Procedure, shortened: as §2

[8] = system: Alopecurus myosuroides (ALOMY); assay: as above; conditions: 14 DAA
Procedure, shortened: as §2

[9] = system: Setaria viridis (SETVI); assay: as above; conditions: 14 DAA
Procedure, shortened: as §2

[10] = system: Avena fatua (AVEFA); assay: as above; conditions: 14 DAA
Procedure, shortened: as §2

[11] = 30 g/ha herbicide, 50 g/ha cloquintocet-mexyl
[12] = 45 g/ha herbicide, 50 g/ha cloquintocet-mexyl
[13] = 60 g/ha herbicide, 0 g/ha cloquintocet-mexyl
[14] = 60 g/ha herbicide, 50 g/ha cloquintocet-mexyl

**Q.** CCc1cc(-n2cc(Cl)cn2)cc(C)c1C1C(=O)C[C@@H](CCNC(=O)c2ccccn2)C1=O (stereo partly shown) [Compound A100] was tested. Which “herbicidal activity against grassy monocotyledonous weeds compared with the compound of opposite stereochemistry” value [1] did it give?
**A.** The value was “more potent herbicidal activity”.

**Q.** And the “Post-emergence herbicidal activity against cereal crops, percentage phytotoxicity, Winter Barley “Suzuka”” value [2, 11]?
**A.** Its value is 10%.

**Q.** What about the “Post-emergence herbicidal activity against cereal crops, percentage phytotoxicity, Winter Barley “Suzuka”” value [2, 12] of the same molecule?
**A.** The value was 30%.

**Q.** And the “Post-emergence herbicidal activity against cereal crops, percentage phytotoxicity, Winter Barley “Suzuka”” value [2, 13]?
**A.** Its value is 93%.

**Q.** And the “Post-emergence herbicidal activity against cereal crops, percentage phytotoxicity, Winter Barley “Suzuka”” value [2, 14]?
**A.** The value was 53%.

**Q.** And the “Post-emergence herbicidal activity against cereal crops, percentage phytotoxicity, Spring Barley “Harrington”” value [3, 11]?
**A.** Its value is 13%.

**Q.** And the “Post-emergence herbicidal activity against cereal crops, percentage phytotoxicity, Spring Barley “Harrington”” value [3, 12]?
**A.** Its value is 18%.

**Q.** What about the “Post-emergence herbicidal activity against cereal crops, percentage phytotoxicity, Spring Barley “Harrington”” value [3, 13] of the same molecule?
**A.** Its value is 83%.

**Q.** What about the “Post-emergence herbicidal activity against cereal crops, percentage phytotoxicity, Spring Barley “Harrington”” value [3, 14] of the same molecule?
**A.** The value was 28%.

**Q.** And the “Post-emergence herbicidal activity against cereal crops, percentage phytotoxicity, Spring Wheat “Teal”” value [4, 11]?
**A.** Its value is 20%.

**Q.** And the “Post-emergence herbicidal activity against cereal crops, percentage phytotoxicity, Spring Wheat “Teal”” value [4, 12]?
**A.** The value was 30%.

**Q.** What about the “Post-emergence herbicidal activity against cereal crops, percentage phytotoxicity, Spring Wheat “Teal”” value [4, 13] of the same molecule?
**A.** Its value is 65%.

**Q.** What about the “Post-emergence herbicidal activity against cereal crops, percentage phytotoxicity, Spring Wheat “Teal”” value [4, 14] of the same molecule?
**A.** Its value is 45%.

**Q.** And the “Post-emergence herbicidal activity against cereal crops, percentage phytotoxicity, Winter Wheat “Hereward”” value [5, 11]?
**A.** The value was 15%.

**Q.** And the “Post-emergence herbicidal activity against cereal crops, percentage phytotoxicity, Winter Wheat “Hereward”” value [5, 12]?
**A.** The value was 30%.

**Q.** And the “Post-emergence herbicidal activity against cereal crops, percentage phytotoxicity, Winter Wheat “Hereward”” value [5, 13]?
**A.** Its value is 60%.

**Q.** What about the “Post-emergence herbicidal activity against cereal crops, percentage phytotoxicity, Winter Wheat “Hereward”” value [5, 14] of the same molecule?
**A.** The value was 40%.

**Q.** And the “Post-emergence herbicidal activity, percentage phytotoxicity, LOLMU” value [6, 11]?
**A.** Its value is 100%.

**Q.** And the “Post-emergence herbicidal activity, percentage phytotoxicity, LOLMU” value [6, 12]?
**A.** The value was 100%.

**Q.** And the “Post-emergence herbicidal activity, percentage phytotoxicity, LOLMU” value [6, 13]?
**A.** Its value is 100%.

**Q.** What about the “Post-emergence herbicidal activity, percentage phytotoxicity, LOLMU” value [6, 14] of the same molecule?
**A.** Its value is 100%.

**Q.** What about the “Post-emergence herbicidal activity, percentage phytotoxicity, POAAN” value [7, 11] of the same molecule?
**A.** Its value is 73%.

**Q.** What about the “Post-emergence herbicidal activity, percentage phytotoxicity, POAAN” value [7, 12] of the same molecule?
**A.** Its value is 78%.

**Q.** And the “Post-emergence herbicidal activity, percentage phytotoxicity, POAAN” value [7, 13]?
**A.** Its value is 80%.

**Q.** What about the “Post-emergence herbicidal activity, percentage phytotoxicity, POAAN” value [7, 14] of the same molecule?
**A.** The value was 78%.

**Q.** What about the “Post-emergence herbicidal activity, percentage phytotoxicity, ALOMY” value [8, 11] of the same molecule?
**A.** The value was 55%.

**Q.** What about the “Post-emergence herbicidal activity, percentage phytotoxicity, ALOMY” value [8, 12] of the same molecule?
**A.** Its value is 75%.

**Q.** What about the “Post-emergence herbicidal activity, percentage phytotoxicity, ALOMY” value [8, 13] of the same molecule?
**A.** The value was 83%.

**Q.** And the “Post-emergence herbicidal activity, percentage phytotoxicity, ALOMY” value [8, 14]?
**A.** Its value is 78%.

**Q.** And the “Post-emergence herbicidal activity, percentage phytotoxicity, SETVI” value [9, 11]?
**A.** Its value is 95%.

**Q.** And the “Post-emergence herbicidal activity, percentage phytotoxicity, SETVI” value [9, 12]?
**A.** The value was 99%.

**Q.** What about the “Post-emergence herbicidal activity, percentage phytotoxicity, SETVI” value [9, 13] of the same molecule?
**A.** The value was 99%.

**Q.** And the “Post-emergence herbicidal activity, percentage phytotoxicity, SETVI” value [9, 14]?
**A.** The value was 99%.

**Q.** And the “Post-emergence herbicidal activity, percentage phytotoxicity, AVEFA” value [10, 11]?
**A.** The value was 100%.

**Q.** What about the “Post-emergence herbicidal activity, percentage phytotoxicity, AVEFA” value [10, 12] of the same molecule?
**A.** Its value is 100%.

**Q.** What about the “Post-emergence herbicidal activity, percentage phytotoxicity, AVEFA” value [10, 13] of the same molecule?
**A.** Its value is 100%.

**Q.** And the “Post-emergence herbicidal activity, percentage phytotoxicity, AVEFA” value [10, 14]?
**A.** Its value is 100%.
